Assay results reported in ChEMBL document CHEMBL5678797, “AZD7762, a novel checkpoint kinase inhibitor, drives checkpoint abrogation and potentiates DNA-targeted therapies” (Mol Cancer Ther, 2008).
Each block holds one compound with its values, some of them ahead of it.

Key:
[1] = test system: HT-29; assay: Inhibition of camptothecin induced DNA damage in human HT-29 cells assessed as G2 checkpoint abrogation measured after 20 hrs presence of nocodazole by pHH3 staining based analysis
[2] = test system: HT-29; assay: Induction of cell cycle arrest in human HT-29 cells incubated for 20 hrs by phH3 staining based analysis
[3] = test system: SW-620; assay: Growth inhibition of human SW620 cells expressing p53 mutant assessed as reduction in cell growth incubated for 48 hrs in presence of gemcitabine; format: functional
[4] = test system: MDA-MB-231; assay: Growth inhibition of human MDA-MB-231 cells expressing p53 mutant assessed as reduction in cell growth incubated for 48 hrs in presence of topotecan; format: functional
[5] = test system: HCT-116; assay: Induction of G2 check point abrogation in human HCT-116 cells assessed as accumulation of cells at G1 phase incubated for 30 hrs in presence of topotecan by fluorescence-activated cell sorting analysis (reference value: 68.52%); format: functional
[6] = test system: HCT-116; assay: Induction of G2 check point abrogation in human HCT-116 cells assessed as accumulation of cells at G2 phase incubated for 30 hrs in presence of topotecan by fluorescence-activated cell sorting analysis (reference value: 9.45%); format: functional
[7] = test system: NCI-H460; assay: Antitumor activity against human NCI-H460 cells expressing DNp53 mutant xenografted in NCr athymic mouse model assessed as reduction in tumor volume at 25 mg/kg measured after 10 to 45 days in presence of gemcitabine by caliper method relative to control; format: functional; design: scale not given: the % may be the effect or the level left; conditions: time 10-45 day
[8] = test system: NCI-H460; assay: Antitumor activity against human NCI-H460 cells expressing DNp53 mutant xenografted in NCr athymic mouse model assessed as log cell kill 25 mg/kg measured after 10 to 45 days in presence of gemcitabine; format: functional; conditions: time 10-45 day
[9] = test system: NCI-H460; assay: Antitumor activity against human NCI-H460 cells expressing DNp53 mutant xenografted in NCr athymic mouse model assessed as T/C ratio at 25 mg/kg measured after 10 to 45 days in presence of gemcitabine by caliper method relative to control; format: functional; conditions: time 10-45 day
[10] = Toxicity in NCr athymic mouse assessed as body weight loss at 25 mg/kg measured after 10 to 45 days in presence of gemcitabine relative to control; format: organism-based; conditions: in vivo, time 10-45 day
[11] = test system: SW-620; assay: Antitumor activity against human SW620 cells xenografted in NCr athymic mouse model assessed as reduction in tumor volume at 12.5 mg/kg measured from 30 to 55 days in presence of gemcitabine by caliper method relative to control; format: functional; design: scale not given: the % may be the effect or the level left; conditions: time 30-55 day
[12] = test system: SW-620; assay: Antitumor activity against human SW620 cells xenografted in NCr athymic mouse model assessed as reduction in tumor volume at 25 mg/kg measured from 30 to 55 days in presence of gemcitabine by caliper method relative to control; format: functional; design: scale not given: the % may be the effect or the level left; conditions: time 30-55 day
[13] = Toxicity in NCr athymic mouse xenografted with human SW620 cells assessed as effect on body weight loss at 12.5 to 25 mg/kg measured after 30 to 55 days in presence of gemcitabine; format: organism-based, SW-620; conditions: in vivo, dose lower 12.5 mg/kg, time lower 30 day, dose upper 25 mg/kg, time upper 55 day
[14] = test system: NCI-H460; assay: Antitumor activity against human NCI-H460 cells expressing DNp53 mutant xenografted in rat model assessed as T/C ratio at 10 mg/kg measured after 10 to 30 days post tumor implantation in presence of gemcitabine by caliper method relative to control; format: functional; conditions: time 10-30 day
[15] = test system: NCI-H460; assay: Antitumor activity against human NCI-H460 cells expressing DNp53 mutant xenografted in rat model assessed as T/C ratio at 20 mg/kg measured after 10 to 30 days post tumor implantation in presence of gemcitabine by caliper method relative to control; format: functional; conditions: time 10-30 day
[16] = Toxicity in rat at low dose measured after 10 to 30 days post tumor implantation; conditions: in vivo, time 10-30 day
[17] = Toxicity in rat assessed as effect on body weight loss at high dose measured after 10 to 30 days post tumor implantation; conditions: in vivo, time 10-30 day
[18] = Toxicity in rnu rat assessed as appearance of skin rashes at 10 to 20 mg/kg, iv measured after 10 to 30 days post tumor implantation; format: organism-based; conditions: in vivo, dose lower 10 mg/kg, time lower 10 day, dose upper 20 mg/kg, time upper 30 day
[19] = test system: SW-620; assay: Antitumor activity against human SW620 cells xenografted in athymic mouse model assessed as T/C ratio at 25 mg/kg measured after 17 to 94 days post tumor implantation by caliper method relative to control; format: functional; conditions: time 17-94 day
[20] = test system: SW-620; assay: Antitumor activity against human SW620 cells xenografted in athymic mouse model assessed as T/C ratio at 25 mg/kg measured after 17 to 94 days post tumor implantation in presence of 25 mg/kg of irinotecan by caliper method relative to control; format: functional; conditions: time 17-94 day
[21] = test system: SW-620; assay: Antitumor activity against human SW620 cells xenografted in athymic mouse model assessed as T/C ratio at 25 mg/kg measured after 17 to 94 days post tumor implantation in presence of 50 mg/kg of irinotecan by caliper method relative to control; format: functional; conditions: time 17-94 day
[22] = test system: SW-620; assay: Antitumor activity against human SW620 cells xenografted in athymic mouse model assessed as inhibition of tumor volume at 25 mg/kg measured after 17 to 94 days post tumor implantation by caliper method relative to control; format: functional; design: scale not given: the % may be the effect or the level left; conditions: time 17-94 day
[23] = test system: SW-620; assay: Antitumor activity against human SW620 cells xenografted in athymic mouse model assessed as inhibition of tumor volume at 25 mg/kg measured after 17 to 94 days post tumor implantation in presence of 25 mg/kg of irinotecan by caliper method relative to control; format: functional; design: scale not given: the % may be the effect or the level left; conditions: time 17-94 day
[24] = test system: SW-620; assay: Antitumor activity against human SW620 cells xenografted in athymic mouse model assessed as inhibition of tumor volume at 25 mg/kg measured after 17 to 94 days post tumor implantation in presence of 50 mg/kg of irinotecan by caliper method relative to control; format: functional; design: scale not given: the % may be the effect or the level left; conditions: time 17-94 day
[25] = Toxicity in athymic mouse assessed as maximum weight loss at 25 mg/kg measured after 17 to 94 days post tumor implantation; format: organism-based; conditions: in vivo, time 17-94 day
[26] = Toxicity in athymic mouse assessed as maximum weight loss at 25 mg/kg measured after 17 to 94 days post tumor implantation in presence of 25 mg/kg of irinotecan; format: organism-based; conditions: in vivo, time 17-94 day
[27] = Toxicity in athymic mouse assessed as maximum weight loss at 25 mg/kg measured after 17 to 94 days post tumor implantation in presence of 50 mg/kg of irinotecan; format: organism-based; conditions: in vivo, time 17-94 day
[28] = Toxicity in rnu rat assessed as appearance of skin rashes at 10 mg/kg measured after 10 to 30 days; format: organism-based; conditions: in vivo, time 10-30 day
[29] = Toxicity in rnu rat assessed as appearance of hemorrhage at 10 mg/kg measured after 10 to 30 days; format: organism-based; conditions: in vivo, time 10-30 day
[30] = test system: SW-620; assay: Growth inhibition of human SW620 cells expressing p53 mutant assessed as reduction in cell growth incubated for 48 hrs; format: functional
[31] = test system: SW-620; assay: Antitumor activity against human SW620 cells xenografted in athymic mouse model assessed as T/C ratio at 50 mg/kg measured after 17 to 94 days post tumor implantation by caliper method relative to control; format: functional; conditions: time 17-94 day
[32] = Toxicity in athymic mouse assessed as maximum weight loss at 50 mg/kg measured after 17 to 94 days post tumor implantation; format: organism-based; conditions: in vivo, time 17-94 day
[33] = test system: HCT-116; assay: Induction of G2 check point abrogation in human HCT-116 cells assessed as accumulation of cells at G1 phase incubated for 30 hrs by fluorescence-activated cell sorting analysis (reference value: 68.52%); format: functional
[34] = test system: HCT-116; assay: Induction of G2 check point abrogation in human HCT-116 cells assessed as accumulation of cells at G2 phase incubated for 30 hrs by fluorescence-activated cell sorting analysis (reference value: 9.45%); format: functional
[35] = test system: MDA-MB-231; assay: cells; conditions: Homo sapiens, MDA-MB-231, 48 h

Structure (SMILES): NC(=O)Nc1cc(-c2cccc(F)c2)sc1C(=O)N[C@H]1CCCNC1 [AZD-7762]
EC50 [1]: 10 nM
EC50 [2]: 620 nM
GI50 [3]: 1.08 nM
TGI ([3]; read-out: GI100): 1.5 nM
GI50 [4]: 150 nM
Activity [5]: 52.86%
Activity [6]: 33.02%
Activity [7]: 76%
LCK [8]: 0.9
T/C [9]: 26%
Activity [10]: 7%
Activity [11]: 73%
Activity [12]: 77%
Activity [13]: Non-Toxic
T/C [14]: 48%
T/C [15]: 32%
Activity [16]: Non-Toxic
Activity [17]: Toxic
Activity [18]: Non-Toxic
T/C [19]: 56%
T/C [20]: -66%
T/C [21]: -67%
Activity [22]: 38%
Activity [23]: 116%
Activity [24]: 116%
Activity [25]: 0%
Activity [26]: 0%
Activity [27]: 0%

GI50 [30]: 24.1 nM
Structure (SMILES): Nc1ccn([C@@H]2O[C@H](CO)[C@@H](O)C2(F)F)c(=O)n1 [GEMCITABINE]
Activity [28]: Toxic
Activity [29]: Toxic
TGI ([30]; read-out: GI100): > 100 nM

Structure (SMILES): CCc1c2c(nc3ccc(OC(=O)N4CCC(N5CCCCC5)CC4)cc13)-c1cc3c(c(=O)n1C2)COC(=O)[C@]3(O)CC [IRINOTECAN]
T/C [19]: 9%
T/C [31]: 1%
Activity [25]: 0%
Activity [32]: -1%

GI50 [35]: 2250 nM
Structure (SMILES): CC[C@@]1(O)C(=O)OCc2c1cc1n(c2=O)Cc2cc3c(CN(C)C)c(O)ccc3nc2-1 [TOPOTECAN]
Activity [33]: 17.06%
Activity [34]: 75.85%
